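Briefly, cells in 96-well plates were exposed to five compound concentrations for 48 h, and endpoints were estimated by linear interpolation. TGI denotes the concentration required for complete inhibition of growth.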
Experiments:
Assay in all cases: NCI-60 cell line screen, 48 h
SF-295 CNS = system: SF-295 CNS
MDA-N = system: MDA-N
HOP-62 NSCLC = system: HOP-62 NSCLC
SK-OV-3 ovarian = system: SK-OV-3 ovarian
UACC-257 melanoma = system: UACC-257 melanoma
PC-3 prostate = system: PC-3 prostate
HCC-2998 colon = system: HCC-2998 colon
SW-620 colon = system: SW-620 colon
SF-268 CNS = system: SF-268 CNS
SN12C renal = system: SN12C renal
U251 CNS = system: U251 CNS
CCRF-CEM leukemia = system: CCRF-CEM leukemia
KM12 colon = system: KM12 colon
HCT-15 colon = system: HCT-15 colon
SF-539 CNS = system: SF-539 CNS
LOX IMVI melanoma = system: LOX IMVI melanoma
MCF7 breast = system: MCF7 breast
SK-MEL-2 melanoma = system: SK-MEL-2 melanoma
NCI-H522 lung = system: NCI-H522 lung
786-0 renal = system: 786-0 renal
T-47D breast = system: T-47D breast
RXF 393 renal = system: RXF 393 renal
BT-549 breast = system: BT-549 breast
SK-MEL-28 melanoma = system: SK-MEL-28 melanoma
A498 renal = system: A498 renal
K-562 leukemia = system: K-562 leukemia
MDA-MB-231 breast = system: MDA-MB-231 breast
SNB-19 CNS = system: SNB-19 CNS
CAKI-1 renal = system: CAKI-1 renal
HL-60(TB) leukemia = system: HL-60(TB) leukemia
EKVX NSCLC = system: EKVX NSCLC
RPMI-8226 leukemia = system: RPMI-8226 leukemia
SK-MEL-5 melanoma = system: SK-MEL-5 melanoma
HCT-116 colon = system: HCT-116 colon
NCI/ADR-RES ovarian = system: NCI/ADR-RES ovarian
DU-145 prostate = system: DU-145 prostate
IGROV1 ovarian = system: IGROV1 ovarian
OVCAR-4 ovarian = system: OVCAR-4 ovarian
HT29 colon = system: HT29 colon
NCI-H226 lung = system: NCI-H226 lung
ACHN renal = system: ACHN renal
NCI-H460 lung = system: NCI-H460 lung
TK-10 renal = system: TK-10 renal
M14 melanoma = system: M14 melanoma
OVCAR-5 ovarian = system: OVCAR-5 ovarian
MOLT-4 leukemia = system: MOLT-4 leukemia
HOP-92 NSCLC = system: HOP-92 NSCLC
COLO 205 colon = system: COLO 205 colon
MDA-MB-435 = system: MDA-MB-435
NCI-H23 lung = system: NCI-H23 lung
MALME-3M melanoma = system: MALME-3M melanoma
HS 578T breast = system: HS 578T breast
OVCAR-8 ovarian = system: OVCAR-8 ovarian
OVCAR-3 ovarian = system: OVCAR-3 ovarian
UO-31 renal = system: UO-31 renal
A549 NSCLC = system: A549 NSCLC
SNB-75 CNS = system: SNB-75 CNS
UACC-62 melanoma = system: UACC-62 melanoma

Question: Which TGI (SF-295 CNS) does the source give for `C1CSCCCSCCCSCCCSCCCSCCCSCCCSCCCSC1` here?
Answer: > 100 µM

Question: What about the TGI (MDA-N) of the same compound?
Answer: > 100 µM

Question: What about the TGI (HOP-62 NSCLC) of the same compound?
Answer: > 100 µM

Question: And the TGI (SK-OV-3 ovarian)?
Answer: > 100 µM

Question: And the TGI (UACC-257 melanoma)?
Answer: > 100 µM

Question: And the TGI (PC-3 prostate)?
Answer: > 100 µM

Question: And the TGI (HCC-2998 colon)?
Answer: > 100 µM

Question: And the TGI (SW-620 colon)?
Answer: > 100 µM

Question: And the TGI (SF-268 CNS)?
Answer: > 100 µM

Question: What about the TGI (SN12C renal) of the same compound?
Answer: > 100 µM

Question: What about the TGI (U251 CNS) of the same compound?
Answer: > 100 µM

Question: What about the TGI (CCRF-CEM leukemia) of the same compound?
Answer: > 100 µM

Question: What about the TGI (KM12 colon) of the same compound?
Answer: > 100 µM

Question: And the TGI (HCT-15 colon)?
Answer: > 100 µM

Question: And the TGI (SF-539 CNS)?
Answer: > 100 µM

Question: And the TGI (LOX IMVI melanoma)?
Answer: > 100 µM

Question: And the TGI (MCF7 breast)?
Answer: > 100 µM

Question: What about the TGI (SK-MEL-2 melanoma) of the same compound?
Answer: > 100 µM

Question: What about the TGI (NCI-H522 lung) of the same compound?
Answer: > 100 µM

Question: What about the TGI (786-0 renal) of the same compound?
Answer: > 100 µM

Question: And the TGI (T-47D breast)?
Answer: > 100 µM

Question: And the TGI (RXF 393 renal)?
Answer: > 100 µM

Question: And the TGI (BT-549 breast)?
Answer: > 100 µM

Question: And the TGI (SK-MEL-28 melanoma)?
Answer: > 100 µM

Question: What about the TGI (A498 renal) of the same compound?
Answer: > 100 µM

Question: And the TGI (K-562 leukemia)?
Answer: > 100 µM

Question: And the TGI (MDA-MB-231 breast)?
Answer: > 100 µM

Question: And the TGI (SNB-19 CNS)?
Answer: > 100 µM

Question: What about the TGI (CAKI-1 renal) of the same compound?
Answer: > 100 µM

Question: What about the TGI (HL-60(TB) leukemia) of the same compound?
Answer: > 100 µM

Question: What about the TGI (EKVX NSCLC) of the same compound?
Answer: > 100 µM

Question: And the TGI (RPMI-8226 leukemia)?
Answer: > 100 µM

Question: What about the TGI (SK-MEL-5 melanoma) of the same compound?
Answer: > 100 µM

Question: What about the TGI (HCT-116 colon) of the same compound?
Answer: > 100 µM

Question: What about the TGI (NCI/ADR-RES ovarian) of the same compound?
Answer: > 100 µM

Question: And the TGI (DU-145 prostate)?
Answer: > 100 µM

Question: What about the TGI (IGROV1 ovarian) of the same compound?
Answer: > 100 µM

Question: And the TGI (OVCAR-4 ovarian)?
Answer: > 100 µM

Question: And the TGI (HT29 colon)?
Answer: > 100 µM

Question: And the TGI (NCI-H226 lung)?
Answer: > 100 µM

Question: What about the TGI (ACHN renal) of the same compound?
Answer: > 100 µM

Question: What about the TGI (NCI-H460 lung) of the same compound?
Answer: > 100 µM

Question: What about the TGI (TK-10 renal) of the same compound?
Answer: > 100 µM

Question: And the TGI (M14 melanoma)?
Answer: > 100 µM

Question: And the TGI (OVCAR-5 ovarian)?
Answer: > 100 µM

Question: What about the TGI (MOLT-4 leukemia) of the same compound?
Answer: > 100 µM

Question: And the TGI (HOP-92 NSCLC)?
Answer: > 100 µM

Question: What about the TGI (COLO 205 colon) of the same compound?
Answer: > 100 µM

Question: What about the TGI (MDA-MB-435) of the same compound?
Answer: > 100 µM

Question: And the TGI (NCI-H23 lung)?
Answer: > 100 µM

Question: And the TGI (MALME-3M melanoma)?
Answer: > 100 µM

Question: And the TGI (HS 578T breast)?
Answer: > 100 µM

Question: What about the TGI (OVCAR-8 ovarian) of the same compound?
Answer: > 100 µM

Question: And the TGI (OVCAR-3 ovarian)?
Answer: > 100 µM

Question: And the TGI (UO-31 renal)?
Answer: > 100 µM

Question: What about the TGI (A549 NSCLC) of the same compound?
Answer: > 100 µM

Question: With `COc1ccc([C@H]2[C@H]3COC(=O)[C@H]3C(C#N)=C3Sc4ccccc4N32)cc1` as the compound, how does the TGI (SF-295 CNS) read?
Answer: > 90.8 µM

Question: And the TGI (MDA-N)?
Answer: > 74.4 µM

Question: And the TGI (HOP-62 NSCLC)?
Answer: > 100 µM

Question: And the TGI (SK-OV-3 ovarian)?
Answer: > 100 µM

Question: What about the TGI (UACC-257 melanoma) of the same compound?
Answer: > 100 µM

Question: What about the TGI (PC-3 prostate) of the same compound?
Answer: > 100 µM

Question: And the TGI (HCC-2998 colon)?
Answer: > 100 µM

Question: What about the TGI (SW-620 colon) of the same compound?
Answer: > 100 µM

Question: And the TGI (SF-268 CNS)?
Answer: > 100 µM

Question: And the TGI (SN12C renal)?
Answer: 36.4 µM

Question: What about the TGI (U251 CNS) of the same compound?
Answer: > 100 µM

Question: And the TGI (SNB-75 CNS)?
Answer: > 26.7 µM

Question: What about the TGI (CCRF-CEM leukemia) of the same compound?
Answer: 47.7 µM

Question: And the TGI (KM12 colon)?
Answer: > 91.2 µM

Question: And the TGI (HCT-15 colon)?
Answer: > 87.4 µM

Question: And the TGI (SF-539 CNS)?
Answer: > 100 µM

Question: What about the TGI (LOX IMVI melanoma) of the same compound?
Answer: > 62.9 µM

Question: And the TGI (MCF7 breast)?
Answer: > 100 µM

Question: What about the TGI (SK-MEL-2 melanoma) of the same compound?
Answer: 56.7 µM

Question: And the TGI (NCI-H522 lung)?
Answer: > 68.2 µM

Question: What about the TGI (786-0 renal) of the same compound?
Answer: > 100 µM

Question: What about the TGI (T-47D breast) of the same compound?
Answer: > 82.5 µM

Question: What about the TGI (RXF 393 renal) of the same compound?
Answer: 38.4 µM

Question: What about the TGI (BT-549 breast) of the same compound?
Answer: 48.9 µM

Question: And the TGI (SK-MEL-28 melanoma)?
Answer: > 100 µM

Question: What about the TGI (A498 renal) of the same compound?
Answer: 98.3 µM

Question: What about the TGI (K-562 leukemia) of the same compound?
Answer: > 100 µM

Question: And the TGI (UACC-62 melanoma)?
Answer: > 100 µM

Question: What about the TGI (MDA-MB-231 breast) of the same compound?
Answer: > 67.2 µM

Question: What about the TGI (SNB-19 CNS) of the same compound?
Answer: > 100 µM

Question: What about the TGI (CAKI-1 renal) of the same compound?
Answer: > 62.3 µM

Question: What about the TGI (EKVX NSCLC) of the same compound?
Answer: > 100 µM

Question: What about the TGI (RPMI-8226 leukemia) of the same compound?
Answer: 72 µM

Question: And the TGI (SK-MEL-5 melanoma)?
Answer: > 57.3 µM

Question: What about the TGI (HCT-116 colon) of the same compound?
Answer: > 100 µM

Question: What about the TGI (NCI/ADR-RES ovarian) of the same compound?
Answer: > 62.5 µM

Question: What about the TGI (DU-145 prostate) of the same compound?
Answer: 69.7 µM

Question: What about the TGI (OVCAR-4 ovarian) of the same compound?
Answer: > 100 µM

Question: What about the TGI (HT29 colon) of the same compound?
Answer: 37.7 µM

Question: And the TGI (NCI-H226 lung)?
Answer: > 100 µM

Question: And the TGI (ACHN renal)?
Answer: > 100 µM

Question: And the TGI (NCI-H460 lung)?
Answer: > 100 µM

Question: What about the TGI (TK-10 renal) of the same compound?
Answer: > 100 µM

Question: What about the TGI (M14 melanoma) of the same compound?
Answer: > 100 µM

Question: What about the TGI (OVCAR-5 ovarian) of the same compound?
Answer: > 100 µM

Question: What about the TGI (MOLT-4 leukemia) of the same compound?
Answer: > 67.7 µM

Question: And the TGI (HOP-92 NSCLC)?
Answer: > 100 µM

Question: What about the TGI (COLO 205 colon) of the same compound?
Answer: 34.5 µM

Question: And the TGI (MDA-MB-435)?
Answer: > 100 µM

Question: And the TGI (NCI-H23 lung)?
Answer: 78.8 µM

Question: What about the TGI (MALME-3M melanoma) of the same compound?
Answer: > 100 µM

Question: What about the TGI (HS 578T breast) of the same compound?
Answer: > 100 µM

Question: What about the TGI (OVCAR-8 ovarian) of the same compound?
Answer: > 100 µM

Question: What about the TGI (OVCAR-3 ovarian) of the same compound?
Answer: 68 µM

Question: What about the TGI (UO-31 renal) of the same compound?
Answer: > 100 µM

Question: What about the TGI (A549 NSCLC) of the same compound?
Answer: > 100 µM
